Reference: patent US12697313B2, “Methods of treating anemia using formoterol or a pharmaceutically acceptable salt thereof” (Dana-Farber Cancer Institute, Inc., priority 2022, dated 2026)
“Also recorded” adds a separate entry of the source.

Key:
[1] = test system: primary human HSPCs; test: Erythroid differentiation liquid culture of primary human HSPCs, flow cytometry; type: cell-based
Description: (§1) To address this, primary human HSPCs were treated with varying doses of FF (Selleckchem). […] To ascertain if FF administration plays a role further upstream in the erythroid differentiation pathway, methylcellulose colony-formation assays were performed.
CD34+ primary human hematopoietic stem and progenitor cells (HSPCs) were obtained from Fred-Hutchinson Cancer Research center, Seattle, USA and cultured, as previously described. Formoterol fumarate was purchased from Selleckchem (#S2020) and Sigma (#F9552), dissolved (in DMSO) and stored as per manufacturer's instructions, and used at the final working concentrations as indicated.

[2] = test system: phenylhydrazine (PHZ)-mediated stress-induced anemic mice; test: Sublethal PHZ (50 mg/kg)-induced hemolytic anemia, female mice, FF i.p.; type: in vivo
[3] = test system: wild-type C57BL/6J mice; test: FF daily i.p. in wild-type mice at steady-state (pilot study); type: in vivo
Description: The murine β2-adrenoreceptor has 87.08% similarity to the protein composition of the human analog. This encouraged further testing to determine whether formoterol fumarate (FF) treatment in wild-type mice under steady state or hemolytic anemia produces any alleviating effect in vivo. To address this, varying doses of FF 0.1-0.3-0.5-1.0 mg/kg or vehicle (0.3% DMSO in saline) were administered via intraperitoneal (i.p.) injection in 10-12 week old wild-type C57BL/6J mice daily for 3 weeks along with weekly submandibular cheek bleeding to analyze complete blood counts (CBC).
C57BL/6J mice were obtained from Jackson laboratories and were housed for at least 2 weeks at the Dana-Farber Cancer Institute (DFCI) animal resources facility before beginning experiments. All drug treatments have been mentioned in detail in the text.

[4] = test system: NUP98-HOXD13 transgenic mice; test: FF i.p. in MDS/AML mice (NUP98-HOXD13 transgenic); type: in vivo; details: 0.3 mg/kg thrice weekly i.p.
Description: FIG. 71A, FIG. 71B and FIG. 71C show FF treatment at a low dose of 0.3 mg/kg thrice weekly (i.p.) alleviates RBC parameters in PB of MDS/AML mice, such as RBCs, hemoglobin (Hb) and hematocrit (HCT%). * p<0.05, ** p <0.01, **** p<0.0001, ANOVA. n=5-7 mice per group. Veh: vehicle; LC: littermate control.

[5] = test system: ADRB2-deficient HSPCs; test: Erythroid differentiation in ADRB2-deficient HSPCs (specificity for β2-adrenoreceptors); type: cell-based, human; details: ADRB2 knocked down HSPCs; FIG. 6E-6F
From the text: Next, to validate the specificity of FF for β2-adrenoreceptors, ADRB2 was knocked down in primary human HSPCs and treated with FF.
(§2) Primary human HSPCs were genome-edited, as previously described (Ghosh, S., Raundhal, M., Myers, S. A., Carr, S. A., Chen, X., Petsko, G. A., and Glimcher, L. H. (2022). Identification of RIOK2 as a master regulator of human blood cell development. Nat Immunol 23, 109-121).

[6] = test system: cisplatin-treated CKD mice; test: FF i.p. in cisplatin-driven chronic kidney disease (CKD) mice; type: in vivo
Description: Comparisons are shown in between cisplatin+FF treated mice as compared to cisplatin+ vehicle treated mice.
FF treatment at a low dose of 0.3 mg/kg 3× weekly (i.p.) alleviates RBC parameters, such as % changes in (FIG. 78A) hematocrit% (HCT%) (FIG. 78B) hemoglobin (Hb) and (FIG. 78C) RBCs in mice with cisplatin-driven CKD. * p<0.05, 2-way ANOVA. n=4-5 mice per group. Comparisons are shown in between cisplatin+FF treated mice as compared to cisplatin+ vehicle treated mice.

[7] = test system: APC KD HSPCs; test: Erythropoiesis in APC knockdown HSPCs; type: cell-based, human; details: FIG. 46
From the text: as §2

[8] = test system: phenylhydrazine (PHZ)-mediated stress-induced anemic mice; test: Sublethal PHZ (60 mg/kg)-induced hemolytic anemia, male mice, FF i.p.; type: in vivo
[9] = test system: primary human HSPCs; test: Mitochondrial functions in primary human HSPCs (mtDNA genes, TMRE, MitoTracker); type: cell-based
Description: as §1, with “Given the involvement of β2-AR in erythropoiesis, it was hypothesized that administration of long-acting selective β2-AR agonist FF might promote erythroid differentiation. To address” for “To address”
TMRE (T669, Invitrogen) and Mitotracker® (M22426, Life Technologies) and MitoSox® (M36008, Life Technologies) staining were performed as per the manufacturer's instructions.

[10] = 0.1/0.3 mg/kg, PHZ 60 mg/kg, FIG. 26

**Q.** Which “erythroid differentiation (CD235a)” value ([1]; 1/5 μM, n=5 healthy donors, FIG. 2) does the source give for `COc1ccc(C[C@@H](C)NC[C@H](O)c2ccc(O)c(NC=O)c2)cc1.O=C(O)/C=C/C(=O)O` [FF, (E)-but-2-enedioic acid;N-[2-hydroxy-5-[(1R)-1-hydroxy-2-[[(2R)-1-(4-methoxyphenyl)propan-2-yl]amino]ethyl]phenyl]formamide] here?
**A.** induces erythroid differentiation (CD235a) dose-dependently

**Q.** What about the “megakaryocytic differentiation (CD41/61)” value ([1]; 1/5 μM, n=5 healthy donors, FIG. 12) of the same compound?
**A.** does not influence megakaryocytic differentiation (CD41/61)

**Q.** And the erythroid differentiation ([1]; FF from Selleckchem and Sigma, n=4 healthy donors, FIG. 3A-3B)?
**A.** similarly enhanced erythroid differentiation; also recorded: enhances erythroid differentiation

**Q.** What about the erythroid differentiation ([1]; control (RIOK2-proficient) HSPCs, FIG. 6B) of the same compound?
**A.** consistently enhanced erythroid differentiation in the control HSPCs

**Q.** What about the “erythroid differentiation (CD235a)” value ([1]; varying doses FF (Selleckchem) vs 0 μM DMSO, n=3 healthy donors, FIG. 1A) of the same compound?
**A.** elevated erythroid differentiation in primary human HSPCs in a dose-dependent manner; also recorded: enhances erythroid differentiation (CD235a) dose-dependently

**Q.** What about the viability ([1]; varying doses FF vs DMSO, FIG. 1B) of the same compound?
**A.** without affecting viability, megakaryopoiesis or myelopoiesis; also recorded: does not affect viability

**Q.** What about the “megakaryocytic (CD41-61) differentiation” value ([1]; varying doses FF vs DMSO, FIG. 1C) of the same compound?
**A.** without affecting viability, megakaryopoiesis or myelopoiesis; also recorded: does not affect

**Q.** What about the “myeloid (CD11b) differentiation” value ([1]; varying doses FF vs DMSO, FIG. 1D) of the same compound?
**A.** without affecting viability, megakaryopoiesis or myelopoiesis; also recorded: does not affect

**Q.** And the “body weights (absolute and % change)” value ([2]; 0.1/0.3 mg/kg daily i.p., female, FIG. 18A)?
**A.** sufficient to revive body weights; also recorded: increases absolute body weights and % change in body weights

**Q.** What about the “HCT % and RBC counts” value ([2]; 0.1/0.3 mg/kg, FIG. 18B) of the same compound?
**A.** produced long-term benefits in elevating HCT % and RBC counts

**Q.** And the Hb production ([2]; 0.1/0.3 mg/kg, FIG. 18B)?
**A.** significantly enhanced Hb production

**Q.** What about the “RBC parameters (Hb, HCT %, RBC numbers) in peripheral blood” value ([2]; 0.1/0.3 mg/kg, FIG. 18B) of the same compound?
**A.** enhances and sustains RBC parameters

**Q.** And the platelet counts ([2]; FIG. 18C)?
**A.** not statistically significant

**Q.** What about the “WBC and monocyte counts” value ([2]; day 4 and over 14 days, FIG. 18C) of the same compound?
**A.** provided an immediate boost to WBC and monocyte counts after PHZ administration, no long term benefits were observed; also recorded: increases WBC and monocyte counts in the peripheral blood after 4 days of daily i.p. injections but does not sustain the impact over 14 days

**Q.** What about the body weights ([3]; 0.3-0.5 and 1.0 mg/kg daily i.p., FIG. 14A) of the same compound?
**A.** mildly increased body weights of mice, but the values did not reach significance

**Q.** And the “RBC parameters (RBC numbers, HCT %, Hb) in peripheral blood” value ([3]; 14 days of daily i.p., FIG. 14C-14E)?
**A.** slightly elevated; also recorded: mildly increases RBC parameters

**Q.** And the “WBC and monocyte counts in peripheral blood” value ([3]; 14 days of daily i.p., FIG. 14F-14G)?
**A.** remained marginally affected; also recorded: does not affect white blood cell (WBC) or monocyte counts

**Q.** What about the “mitochondrial biogenesis in PBMCs (MitoTracker staining)” value ([3]; all doses, day 14 of daily i.p., FIG. 14B) of the same compound?
**A.** significantly enhanced mitochondrial biogenesis; also recorded: enhances mitochondrial biogenesis

**Q.** And the “tolerability (body weights, mobility, activeness, breathing patterns)” value ([3]; daily i.p. 0.1-0.3-0.5-1.0 mg/kg)?
**A.** well-tolerated

**Q.** What about the “RBC parameters (RBCs, Hb, HCT%) in PB” value ([4]; FIG. 71) of the same compound?
**A.** elevates RBC parameters

**Q.** What about the “platelets and WBCs in peripheral blood” value ([4]; FIG. 72A-72B) of the same compound?
**A.** has no impact

**Q.** What about the “apoptosis (Annexin V staining) in the bone marrow” value ([4]; FIG. 72C) of the same compound?
**A.** has no impact

**Q.** What about the “erythroid progenitors in the BM” value ([4]; FIG. 73A) of the same compound?
**A.** elevates erythroid progenitors

**Q.** And the “GMP and MkP in the BM” value ([4]; FIG. 73B-73C)?
**A.** does not affect

**Q.** What about the erythroid differentiation [5] of the same compound?
**A.** failed to induce erythropoiesis in ADRB2-deficient HSPCs; also recorded: inability of FF to induce erythroid differentiation

**Q.** What about the “% changes in RBC parameters (HCT%, Hb, RBCs)” value ([6]; 0.3 mg/kg 3× weekly i.p., FIG. 78) of the same compound?
**A.** rescues anemia

**Q.** And the “absolute values of RBC parameters (Hb, HCT %, RBCs)” value ([6]; 0.3 mg/kg 3× weekly i.p., FIG. 79)?
**A.** elevates RBC parameters

**Q.** And the “terminal erythroid progenitors in the BM” value ([6]; 0.3 mg/kg 3× weekly i.p., FIG. 81A)?
**A.** elevates erythroid progenitors

**Q.** What about the “serum BUN and creatinine levels” value ([6]; FIG. 77) of the same compound?
**A.** does not affect serum BUN and creatinine levels

**Q.** And the WBCs and platelets ([6]; FIG. 80)?
**A.** does not affect WBC parameters

**Q.** What about the body weights ([6]; i.p., vs cisplatin+vehicle, FIG. 76) of the same compound?
**A.** significantly rescues (elevates) body weights

**Q.** What about the erythropoiesis [7] of the same compound?
**A.** moderately rescues erythropoiesis

**Q.** And the “body weights (absolute and % change)” value ([8]; 0.1/0.3 mg/kg i.p., PHZ 60 mg/kg, male, FIG. 22A)?
**A.** marked revival was similarly observed in body weights; also recorded: increases absolute body weights and % change in body weights

**Q.** And the “viability of BM cells” value ([8]; 0.1/0.3 mg/kg, PHZ 60 mg/kg, FIG. 23A)?
**A.** marked increase in viability; also recorded: substantially increases viability

**Q.** What about the “common myeloid progenitors (CMP) and granulocyte monocyte progenitors (GMP) in BM” value [8, 10] of the same compound?
**A.** not affected

**Q.** And the “megakaryocyte erythroid progenitors (MEP) in BM” value [8, 10]?
**A.** specifically boosted megakaryocyte erythroid progenitors (MEP); also recorded: substantially increases MEP

**Q.** What about the “megakaryocytic progenitors (MkP) in BM” value ([8]; 0.1/0.3 mg/kg, PHZ 60 mg/kg, FIG. 27) of the same compound?
**A.** no stark differences were observed in megakaryocytic progenitors; also recorded: does not affect megakaryocytic progenitors

**Q.** What about the “mitochondrial mass in PBMCs (MitoTracker staining)” value ([8]; Day 4 after PHZ treatment, FIG. 21) of the same compound?
**A.** increases MitoTracker® Staining

**Q.** What about the “mitochondrial biogenesis in BM cells (MitoTracker staining)” value ([8]; FIG. 23B) of the same compound?
**A.** elevated mitochondrial biogenesis; also recorded: enhances mitochondrial biogenesis

**Q.** And the “mitochondrial superoxide production in BM cells (MitoSox staining)” value ([8]; FIG. 23C)?
**A.** reduced mitochondrial superoxide production; also recorded: significantly reduces mitochondrial superoxide production

**Q.** What about the “LS-K cells in the bone marrow” value ([8]; FIG. 25) of the same compound?
**A.** enhances LS-K cells

**Q.** And the “Pre-CFU-E cells in the BM” value ([8]; FIG. 28)?
**A.** selectively enhances Pre-CFU-E cells

**Q.** And the “pro-erythroblasts in the BM” value ([8]; FIG. 29)?
**A.** selectively enhances pro-erythroblasts

**Q.** What about the “granulocytic myeloid progenitors (GMP) in bone marrow” value ([8]; FIG. 41, study not stated in legend) of the same compound?
**A.** does not affect granulocytic myeloid progenitors (GMP)

**Q.** What about the “RBC parameters (Hb, HCT %, RBC numbers) in peripheral blood” value ([8]; PHZ 60 mg/kg, FIG. 22B) of the same compound?
**A.** consistently improved RBC parameters; also recorded: significantly enhances and sustains RBC parameters

**Q.** And the platelet counts ([8]; PHZ 60 mg/kg, FIG. 22C)?
**A.** no long term impact was observed in the WBC parameters or platelets; also recorded: not statistically significant

**Q.** And the “WBC and monocyte counts” value ([8]; day 4 and over 14 days, PHZ 60 mg/kg, FIG. 22C)?
**A.** no long term impact was observed in the WBC parameters or platelets; also recorded: increases WBC and monocyte counts in the peripheral blood after 4 days of daily i.p. injections but does not sustain the impact over 14 days

**Q.** And the “mitochondrial membrane potential (TMRE staining)” value ([9]; FIG. 5B)?
**A.** elevated mitochondrial mass and membrane potential; also recorded: enhances mitochondrial membrane potential

**Q.** What about the “mitochondrial mass (MitoTracker staining)” value ([9]; FIG. 5C) of the same compound?
**A.** elevated mitochondrial mass and membrane potential; also recorded: increases mitochondrial mass

**Q.** And the “expression of mitochondrial DNA encoded genes MT-ND1, MT-CytB, MT-CO1, MT-ATP6” value ([9]; vs DMSO, FIG. 5A)?
**A.** enhanced expression of mtDNA encoded genes required for OXPHOS; also recorded: enhances expression of mitochondrial DNA encoded genes
